# Data taken from patent US20220089575A1, “FARNESOID X RECEPTOR AGONISTS AND USES THEREOF” (Metacrine, Inc., priority 2017, published 2022).
# Molecular target: T1, hFXR (Homo sapiens, UniProt Q96RI1)
# T1 construct: expressed in transfected cells; host or cells: CV-1 cells
# T1 sequence (Q96RI1 1-486): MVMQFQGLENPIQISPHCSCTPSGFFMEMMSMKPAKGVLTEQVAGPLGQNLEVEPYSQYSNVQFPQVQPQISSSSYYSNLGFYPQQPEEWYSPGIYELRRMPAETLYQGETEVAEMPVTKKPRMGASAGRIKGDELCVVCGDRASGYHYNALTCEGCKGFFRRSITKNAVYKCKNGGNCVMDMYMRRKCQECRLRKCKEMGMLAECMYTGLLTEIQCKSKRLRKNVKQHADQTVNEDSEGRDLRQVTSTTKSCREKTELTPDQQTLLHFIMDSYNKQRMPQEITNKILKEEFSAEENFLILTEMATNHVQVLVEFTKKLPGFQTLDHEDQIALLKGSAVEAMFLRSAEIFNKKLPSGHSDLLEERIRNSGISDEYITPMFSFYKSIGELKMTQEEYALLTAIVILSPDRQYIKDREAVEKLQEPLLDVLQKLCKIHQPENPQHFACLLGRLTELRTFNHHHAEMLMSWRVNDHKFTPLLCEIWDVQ
# T1 sequence (P19793 1-462 partner): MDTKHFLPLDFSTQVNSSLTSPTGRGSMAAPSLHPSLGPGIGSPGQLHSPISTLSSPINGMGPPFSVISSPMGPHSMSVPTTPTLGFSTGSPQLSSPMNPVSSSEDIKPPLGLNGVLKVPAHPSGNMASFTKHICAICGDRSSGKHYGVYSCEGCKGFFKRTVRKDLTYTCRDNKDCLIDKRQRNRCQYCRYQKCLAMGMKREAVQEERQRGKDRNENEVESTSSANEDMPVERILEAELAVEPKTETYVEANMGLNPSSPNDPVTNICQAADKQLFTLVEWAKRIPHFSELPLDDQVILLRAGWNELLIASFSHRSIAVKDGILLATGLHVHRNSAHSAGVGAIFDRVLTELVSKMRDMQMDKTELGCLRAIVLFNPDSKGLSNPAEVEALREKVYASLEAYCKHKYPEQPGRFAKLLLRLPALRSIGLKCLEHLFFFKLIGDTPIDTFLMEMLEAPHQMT
# Test: In Vitro FXR Assay (TK): TK-ECRE-luc reporter in transfected CV-1 cells
# Type: cell-based
# Conditions: 18 hrs, luminescence, maximum efficacy of <25% of the Fexarmine control classified as '+'
# How it was run: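 CV-1 cells transiently co-transfected with hFXR, hRXR, TK-ECRE-luc and pCMX-YFP plasmids in charcoal-stripped serum medium. Serially diluted compounds added, cells incubated 18 h at 37° C, then lysed and luminescence read.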
row,Structure (SMILES),EC50
1,"CN(C)c1ccc([C@H]2CC[C@H](CN(c3cccc(-c4coc(C5CC5)n4)c3)C(=O)[C@H]3CC[C@H](OC(=O)N4CC(O)C4)CC3)CC2)cn1 [Compound 7.63, trans-4-((3-(2-Cyclopropyloxazol-4-yl)phenyl)((trans-4-(6-(dimethylamino)pyridine-3-yl)cyclohexyl)methyl)carbamoyl)cyclohexyl 3-hydroxyazetidine-1-carboxylate]",≤ 250 nM
2,"COc1ccc([C@H]2CC[C@H](CN(c3cccc(-c4coc(C(C)C)n4)c3)C(=O)[C@H]3CC[C@H](OC(=O)N4CC(O)C4)CC3)CC2)cc1C [Compound 7.64, trans-4-((3-(2-Isopropyloxazol-4-yl)phenyl)((trans-4-(4-methoxy-3-methylphenyl)cyclohexyl)methyl)carbamoyl)cyclohexyl 3-hydroxyazetidine-1-carboxylate]",≤ 250 nM
3,"COc1ccc([C@H]2CC[C@H](CN(c3cccc(-c4coc(C(C)C)n4)c3)C(=O)[C@H]3CC[C@H](OC(=O)N4CC(O)C4)CC3)CC2)nc1C [Compound 7.65, trans-4-((3-(2-Isopropyloxazol-4-yl)phenyl)((trans-4-(5-methoxy-6-methylpyridin-2-yl)cyclohexyl)methyl)carbamoyl)cyclohexyl 3-hydroxyazetidine-1-carboxylate]",≤ 250 nM
4,"COc1ccc([C@H]2CC[C@H](CN(c3cccc(-c4coc(C5CC5)n4)c3)C(=O)[C@H]3CC[C@H](OC(=O)N4CC(O)C4)CC3)CC2)nc1C [Compound 7.66, trans-4-((3-(2-Cyclopropyloxazol-4-yl)phenyl)((trans-4-(5-methoxy-6-methylpyridin-2-yl)cyclohexyl)methyl)carbamoyl)cyclohexyl 3-hydroxyazetidine-1-carboxylate]",≤ 250 nM
5,"COc1ccc([C@H]2CC[C@H](CN(c3cc(-c4coc(C5CC5)n4)ccn3)C(=O)[C@H]3CC[C@H](OC(=O)N4CC(O)C4)CC3)CC2)cc1C [Compound 7.67, trans-4-((4-(2-Cyclopropyloxazol-4-yl)pyridine-2-yl)((trans-4-(4-methoxy-3-methylphenyl)cyclohexyl)methyl)carbamoyl)cyclohexyl 3-hydroxyazetidine-1-carboxylate]",≤ 250 nM
6,"COc1ccc([C@H]2CC[C@H](CN(c3cccc(-c4coc(C5CC5)n4)c3)C(=O)[C@H]3CC[C@H](OC(=O)N4CC(O)C4)CC3)CC2)cc1C#N [Compound 7.68, trans-4-(((trans-4-(3-Cyano-4-methoxyphenyl)cyclohexyl)methyl)(3-(2-cyclopropyloxazol-4-yl)phenyl)carbamoyl)cyclohexyl 3-hydroxyazetidine-1-carboxylate]",≤ 250 nM
7,"COc1ccc([C@H]2CC[C@H](CN(c3cc(-c4coc(C5CC5)n4)ccn3)C(=O)[C@H]3CC[C@H](OC(=O)N4CC(O)C4)CC3)CC2)cc1C#N [Compound 7.69, trans-4-(((trans-4-(3-Cyano-4-methoxyphenyl)cyclohexyl)methyl)(4-(2-cyclopropyloxazol-4-yl)pyridine-2-yl)carbamoyl)cyclohexyl 3-hydroxyazetidine-1-carboxylate]",≤ 250 nM
8,"COc1ccc([C@H]2CC[C@H](CN(c3cccc(-c4coc(C5CC5)n4)c3)C(=O)[C@H]3CC[C@H](OC(=O)N4CC(O)C4)CC3)CC2)nc1C#N [Compound 7.70, trans-4-(((trans-4-(6-Cyano-5-methoxypyridin-2-yl)cyclohexyl)methyl)(3-(2-cyclopropyloxazol-4-yl)phenyl)carbamoyl)cyclohexyl 3-hydroxyazetidine-1-carboxylate]",≤ 250 nM
9,"COc1ccc([C@H]2CC[C@H](CN(c3cc(-c4coc(C(C)C)n4)ccn3)C(=O)[C@H]3CC[C@H](OC(=O)N4CC(O)C4)CC3)CC2)nc1C [Compound 7.71, trans-4-((4-(2-Isopropyloxazol-4-yl)pyridine-2-yl)((trans-4-(5-methoxy-6-methylpyridin-2-yl)cyclohexyl)methyl)carbamoyl)cyclohexyl 3-hydroxyazetidine-1-carboxylate]",≤ 250 nM
10,"COc1ccc([C@H]2CC[C@H](CN(c3cc(-c4coc(C5CC5)n4)ccn3)C(=O)[C@H]3CC[C@H](OC(=O)N4CC(O)C4)CC3)CC2)nc1C#N [Compound 7.72, trans-4-(((trans-4-(6-Cyano-5-methoxypyridin-2-yl)cyclohexyl)methyl)(4-(2-cyclopropyloxazol-4-yl)pyridine-2-yl)carbamoyl)cyclohexyl 3-hydroxyazetidine-1-carboxylate]",≤ 250 nM
11,"COc1ccc([C@H]2CC[C@H](CN(c3cc(-c4coc(C(C)C)n4)ccn3)C(=O)[C@H]3CC[C@H](OC(=O)N4CC(O)C4)CC3)CC2)cc1C#N [Compound 7.73, trans-4-(((trans-4-(3-Cyano-4-methoxyphenyl)cyclohexyl)methyl)(4-(2-isopropyloxazol-4-yl)pyridine-2-yl)carbamoyl)cyclohexyl 3-hydroxyazetidine-1-carboxylate]",≤ 250 nM
12,"COc1ccc([C@H]2CC[C@H](CN(c3cccc(-c4coc(C(C)C)n4)c3)C(=O)[C@H]3CC[C@H](OC(=O)N4CC(O)C4)CC3)CC2)nc1C#N [Compound 7.74, trans-4-(((trans-4-(6-Cyano-5-methoxypyridin-2-yl)cyclohexyl)methyl)(3-(2-isopropyloxazol-4-yl)phenyl)carbamoyl)cyclohexyl 3-hydroxyazetidine-1-carboxylate]",≤ 250 nM
13,"COc1ccc([C@H]2CC[C@H](CN(c3cc(-c4coc(C5CC5)n4)ccn3)C(=O)[C@H]3CC[C@H](OC(=O)N4CCC4)CC3)CC2)nc1C [Compound 7.75, trans-4-((4-(2-Cyclopropyloxazol-4-yl)pyridine-2-yl)((trans-4-(5-methoxy-6-methylpyridin-2-yl)cyclohexyl)methyl)carbamoyl)cyclohexyl azetidine-1-carboxylate]",≤ 250 nM
14,"COc1ccc([C@H]2CC[C@H](CN(c3cc(-c4coc(C5CC5)n4)ccn3)C(=O)[C@H]3CC[C@H](OC(=O)N4CC(OC)C4)CC3)CC2)nc1C [Compound 7.76, trans-4-((4-(2-Cyclopropyloxazol-4-yl)pyridine-2-yl)((trans-4-(5-methoxy-6-methylpyridin-2-yl)cyclohexyl)methyl)carbamoyl)cyclohexyl 3-methoxyazetidine-1-carboxylate]",≤ 250 nM
15,"COCC1CN(C(=O)O[C@H]2CC[C@H](C(=O)N(C[C@H]3CC[C@H](c4ccc(OC)c(C)n4)CC3)c3cc(-c4coc(C5CC5)n4)ccn3)CC2)C1 [Compound 7.77, trans-4-((4-(2-Cyclopropyloxazol-4-yl)pyridin-2-yl)((trans-4-(5-methoxy-6-methylpyridin-2-yl)cyclohexyl)methyl)carbamoyl)cyclohexyl 3-(methoxymethyl)azetidine-1-carboxylate]",≤ 250 nM
16,"COc1ccc([C@H]2CC[C@H](CN(c3cc(-c4coc(C5CC5)n4)ccn3)C(=O)[C@H]3CC[C@H](OC(=O)N(C)C)CC3)CC2)nc1C [Compound 7.78, trans-4-((4-(2-Cyclopropyloxazol-4-yl)pyridine-2-yl)((trans-4-(5-methoxy-6-methylpyridin-2-yl)cyclohexyl)methyl)carbamoyl)cyclohexyl dimethylcarbamate]",≤ 250 nM
17,"COc1ccc([C@H]2CC[C@H](CN(c3cc(-c4coc(C5CC5)n4)ccn3)C(=O)[C@H]3CC[C@H](OC(=O)N4CC(N(C)C)C4)CC3)CC2)nc1C [Compound 7.79, trans-4-((4-(2-Cyclopropyloxazol-4-yl)pyridine-2-yl)((trans-4-(5-methoxy-6-methylpyridin-2-yl)cyclohexyl)methyl)carbamoyl)cyclohexyl 3-(dimethylamino)azetidine-1-carboxylate]",≤ 250 nM
18,"COc1ccc([C@H]2CC[C@H](CN(c3cc(-c4coc(C5CC5)n4)ccn3)C(=O)[C@H]3CC[C@H](OC(=O)N4CC(CO)C4)CC3)CC2)nc1C [Compound 7.80, trans-4-(4-(2-Cyclopropyloxazol-4-yl)pyridine-2-yl)((trans-4-(5-methoxy-6-methylpyridin-2-yl)cyclohexyl)methyl) carbamoyl)cyclohexyl 3-(hydroxymethyl)azetidine-1-carboxylate]",≤ 250 nM
19,"COc1ccc([C@H]2CC[C@H](CN(c3cc(-c4coc(C5CC5)n4)ccn3)C(=O)[C@H]3CC[C@H](OC(=O)N4CC(N(C)C)C4)CC3)CC2)cc1C [Compound 7.81, trans-4-((4-(2-Cyclopropyloxazol-4-yl)pyridine-2-yl)((trans-4-(4-methoxy-3-methylphenyl)cyclohexyl)methyl)carbamoyl)cyclohexyl 3-(dimethylamino)azetidine-1-carboxylate]",≤ 250 nM
